No end group written: not given here.
What was measured:
[1] = In vitro transdermal permeation, modified Franz diffusion cells, HPLC; assay type: in vitro ADME, human
Description: Finally, a number of these cosolvent formulations were evaluated for their in vitro transdermal permeation properties (FIG. 3X2). Note that these cosolvents are also known to function as permeability enhancers in some formulations (10-1 1). For this series of experiments, human skin obtained from abdominoplastic surgery was mounted on modified Franz diffusion cells and drug permeation was determined as a function of time using high performance liquid chromatography.
The Franz diffusion cell is an essential tool in the field of transdermal drug delivery. Patient-derived skin is placed between the cell cap and the solution chamber. The cell cap is exposed to the environment allowing the stratum corneum to also be exposed to the environment. The solution chamber is filled with an isotonic diffusion buffer. Additionally the solution chamber has an injection port that allows for difhsion buffer to be removed without disturbing the setup. Finally, the solution chamber is surrounded by a water jacket that allows for temperature control. The Franz diffusion cell allows for in vitro studies of transdennal delivery to be carried out using physiological conditions. Note that penetration of any solute through the patient-derived skin into the difhsion buffer is equivalent to that solute reaching systemic circulation in an in vivo system. […] Determination of silica content in different layers of the skin will be determined using enzymatic tissue digestion, and inductively coupled plasma mass spectroscopy (ICP mass spec). Both the SLB and nanoporous particle core can be fluorescently tagged to allow for confocal microscopy. In addition, the skin samples can be microtomed after treatment and incubation with protocells so that they can be imaged using TEM.

[2] = cited from earlier work
[3] = target: hepatocyte growth factor receptor (c-Met) (Homo sapiens, UniProt P08581); conditions: peptide identified by phage display
Sequence of hepatocyte growth factor receptor (c-Met) (P08581 25-932): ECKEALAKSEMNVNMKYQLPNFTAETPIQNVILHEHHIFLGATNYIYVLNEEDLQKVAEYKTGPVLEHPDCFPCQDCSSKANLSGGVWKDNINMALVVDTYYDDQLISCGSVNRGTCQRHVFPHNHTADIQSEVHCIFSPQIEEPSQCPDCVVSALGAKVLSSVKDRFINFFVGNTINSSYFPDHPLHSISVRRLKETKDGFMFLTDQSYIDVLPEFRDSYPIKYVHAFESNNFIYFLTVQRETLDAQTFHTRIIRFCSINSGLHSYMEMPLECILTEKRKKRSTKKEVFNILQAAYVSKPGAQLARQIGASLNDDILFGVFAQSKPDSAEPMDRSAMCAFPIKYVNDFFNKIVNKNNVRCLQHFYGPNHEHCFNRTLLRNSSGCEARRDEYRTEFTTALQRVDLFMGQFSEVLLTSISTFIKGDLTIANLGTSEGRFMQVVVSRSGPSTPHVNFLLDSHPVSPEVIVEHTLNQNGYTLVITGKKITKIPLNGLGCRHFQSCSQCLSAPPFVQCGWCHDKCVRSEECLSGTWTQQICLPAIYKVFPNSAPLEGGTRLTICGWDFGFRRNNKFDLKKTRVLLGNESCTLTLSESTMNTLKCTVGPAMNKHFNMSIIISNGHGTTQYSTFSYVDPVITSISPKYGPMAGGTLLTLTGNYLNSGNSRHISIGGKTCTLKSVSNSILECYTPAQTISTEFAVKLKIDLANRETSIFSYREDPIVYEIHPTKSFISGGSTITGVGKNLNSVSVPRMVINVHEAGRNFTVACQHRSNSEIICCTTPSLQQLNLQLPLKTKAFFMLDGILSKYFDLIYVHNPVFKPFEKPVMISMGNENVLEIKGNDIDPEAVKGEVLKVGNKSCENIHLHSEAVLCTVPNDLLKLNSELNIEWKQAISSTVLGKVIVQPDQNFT

Compound: Cc1ccc(NC(=O)c2ccc(CN3CCN(C)CC3)cc2)cc1Nc1nccc(-c2cccnc2)n1 [Imatinib]
- permeability through the skin ([1]; DMSO): highest permeability
- flux (rate of permeation through the skin) ([1]; DMSO formulation): 0.225 μg/cm2hr
- permeation through the skin ([1]; water (pH 7) as solvent system, 24 hours): no imatinib permeated through the skin

Compound: CN1CCCC1c1cccnc1 (stereo not drawn) [Nicotine]
- solubility in H2O [2]: miscible in H2O

Compound: CC(C)Cc1ccc(C(C)C(=O)O)cc1 (stereo not drawn) [ibuprofen]
- solubility in H2O [2]: insoluble in H2O

Compound: ASVHFPP [MC40]
- affinity for hepatocyte growth factor receptor (c-Met) [3]: nanomolar affinity

Source: patent US20170232115A1 (priority 2011, published 2017)
